Assay [1] deals with cryptogenic neuropathy. The settings on record: in vivo; cited from earlier work.
Assay [2] concerns cryptogenic neuropathy. In words: Case reports: patients with cryptogenic neuropathy treated with R-LA. The assay is classed as in vivo, human. As for the experimental part: A patient with cryptogenic neuropathy was treated with an agent according to the present invention. For that purpose a daily oral dose of 50 mg of R-LA (s.d.) was given over a time period of 8 weeks in a customary multivitamin presentation form. The disease is presented by a loss of sensory perception in the feet and a severe impairment of perspiration.
A patient with cryptogenic neuropathy was treated with an agent according to the present invention. For that purpose a daily oral dose of 50 mg of R-LA (s.d.) was given over a time period of 12 weeks.
A patient with cryptogenic neuropathy was treated with an agent according to the present invention. For that purpose 50 mg of R-LA (s.d.) in an oral multivitamin preparation together with γ-linolenic acid was given. The administration was at first 2 times a day for 6 weeks and then 1 time a day. The lost sensation in the tips of the fingers and toes (Semmes Weinstein monofilament) recovered after 4 weeks.
A patient with cryptogenic neuropathy was treated with an agent according to the present invention. For that purpose a daily oral dose of 100 mg of R-LA as Na salt was given over a time period of 8 weeks. The incontinence and also the control over the bladder were improved after 3 weeks.
A patient with cryptogenic neuropathy was treated with an agent according to the present invention. For that purpose at first a dose of 300 mg of R-LA (Na salt) was given 1 time a day over a time period of 2 weeks and then a dose of 100 mg was given 1 time a day over a time period of 6 weeks. Due to inconsequent taking of the dose on average the agent was only administered every second day. The dryness of the eyes has not changed during the first 3 weeks, but after 4 weeks the use of eye drops was reduced.
A patient with cryptogenic neuropathy was treated with an agent according to the present invention. For that purpose at first a daily oral dose of 100 mg of R-LA was given over a time period of one week and then a reduction to a dose of 50 mg for 6 weeks with continuous co-medication of gabapentin followed.
A patient with cryptogenic neuropathy was treated with an agent according to the present invention. For that purpose at first a daily oral dose of 100 mg of R-LA was given over a time period of two weeks. Then a reduction to a dose of 50 mg followed which was continued over 3 weeks. Subsequently the treatment was continued with the administration of 25 mg over further 3 weeks. […] Sharp pain which occurred occasionally was unchanged.
A patient with cryptogenic neuropathy was treated with an agent according to the present invention. For that purpose at first a daily oral dose of 100 mg of R-LA was given over a time period of four weeks. Then an anti-oxidative multivitamin preparation together with 50 mg of R-LA was given over 4 weeks.
A patient with cryptogenic neuropathy was treated with an agent according to the present invention. For that purpose at first a daily oral dose of 50 mg of R-LA was given over a time period of six weeks. Then an anti-oxidative multivitamin preparation without R-LA was given orally over 4 weeks. The patient suffered from numbness and the loss of sensory perception in the lower limbs. Due to a possible immunologic background ibuprofen was given as a long-term medication. […] The heart pains during stair climbing disappeared.
A patient with cryptogenic neuropathy was treated with an agent according to the present invention. For that purpose a daily dose of 300 mg of R-LA was given over a time period of four weeks together with a continued administration of a vitamin B-combination medication. […] Stomach pain and feeling of abdominal fullness were improved at the end of that period.
A patient with cryptogenic neuropathy was treated with an agent according to the present invention. For that purpose a daily oral dose of 400 mg of R-LA (K salt) was given over a time period of one week. […] 3 months later a formulation of 100 mg (Na salt) was given. […]

Assay [3] has as its system diabetic polyneuropathy. The settings on record: cited from earlier work.
For assay [4], the system named is uremic neuropathy. The settings on record: cited from earlier work.
[5] abbreviates: Example 1, 50 mg daily oral (s.d.) in multivitamin presentation form, after 8 weeks.
Where [6] appears, read: Example 9, 50 mg daily oral over six weeks, ibuprofen long-term medication.
Where [7] appears, read: Example 11, 400 mg daily oral (K salt) over one week.

Molecules are shown by their SMILES. Structures can show the parent of a compound that is named as a salt.

On to `C[C@]12CCC(=O)C=C1CC[C@@H]1[C@@H]2C(=O)C[C@@]2(C)[C@H]1CC[C@]2(O)C(=O)CO` [cortisone], for which the “outcome of therapy of cryptogenic neuropathy” value in assay [1] was “unsuccessful”.

With `O=C(O)CCCC[C@@H]1CCSS1` [R-LA (Na salt)], the “incontinence and control over the bladder” value in assay [2] (Example 4, 100 mg daily oral as Na salt, after 3 weeks) is “improved”. The chronic obstipation result in assay [2] (Example 4, 100 mg daily oral as Na salt, after 5 weeks) is listed as “no longer a problem”. Also, the stool frequency in assay [2] (Example 4, 100 mg daily oral as Na salt, after 5 weeks, 2 to 3 times a week before) was 5 times a week. In addition, the “dryness of the eyes” value in assay [2] (Example 5, 300 mg 1 time a day for 2 weeks, then 100 mg for 6 weeks (on average taken every second day), first 3 weeks) is “not changed”. For the same compound, the “feeling of burning in the feet” value in assay [2] (Example 5, 300 mg for 2 weeks, then 100 mg, after 3 weeks) is “reduced after 3 weeks (from severe to moderate)”; in assay [2] (Example 5, during the weeks following week 3), “unchanged”. For the same compound, the “use of eye drops” value in assay [2] (Example 5, 300 mg for 2 weeks, then 100 mg, after 4 weeks) is reported as “reduced”.

With `O=C(O)CCCC[C@@H]1CCSS1` [R-LA, (R)-5-(1,2-dithiolan-3-yl)valeric acid], the perspiration result in assay [2] (setting [5]) is given as “moderately improved”. For the same compound, the “sensory perception in the feet” value in assay [2] (setting [5]) is on record as “moderately improved”. For the same compound, the “feeling of burning and tingling in the feet and hands” value in assay [2] (Example 2, 50 mg daily oral (s.d.) over 12 weeks) is recorded as “improved moderately”. Also, the “symptoms after the termination of the treatment” value in assay [2] (Example 2, after 12 weeks of 50 mg daily oral) is given as “became worse again”. Also, in assay [2] (Example 3, 50 mg in oral multivitamin preparation with γ-linolenic acid, 2 times a day, after 4 weeks), the “lost sensation in the tips of the fingers and toes (Semmes Weinstein monofilament)” value is reported as “recovered”. The “function improvement on halving of the dose” value in assay [2] (Example 3, 2 times a day for 6 weeks, then 1 time a day) is recorded as “not influenced”. The “neurological pain in the feet” value in assay [2] (Example 6, 100 mg daily oral for one week, then 50 mg for 6 weeks, co-medication of gabapentin) is reported as “unchanged”. Besides, the “perception of pain stimulus with a needle at the feet” value in assay [2] (Example 6, 100 mg for one week, then 50 mg, gabapentin co-medication, after 3 weeks, not perceived at first) was “perceived moderately”. Also, the “feeling of burning in the feet” value in assay [2] (Example 7, 100 mg daily oral for two weeks, then 50 mg, after 3 weeks) is on record as “improved from severe to moderate”; in assay [2] (Example 7, 100 mg for two weeks, then 50 mg for 3 weeks, after 5 weeks) it was “disappeared completely”; in assay [2] (Example 8, 100 mg daily oral, after 2 weeks), “improved from severe to moderate”; in assay [2] (Example 8, 100 mg for four weeks, then anti-oxidative multivitamin preparation with 50 mg, after 6 weeks) it was “became worse again”. For the same compound, the “sharp pain which occurred occasionally” value in assay [2] (Example 7, 100 mg for 2 weeks, 50 mg for 3 weeks, 25 mg for 3 weeks) was “unchanged”. For the same compound, the “heart pains during stair climbing” value in assay [2] (setting [6]) is “disappeared”. Besides, the numbness entry in assay [2] (setting [6]) is “unchanged”. Besides, the “sensory perception in the lower limbs” value in assay [2] (Example 9, 50 mg daily oral, ibuprofen long-term medication, after 3 weeks, then stable) is recorded as “improved from severe to moderate”. The “sensory perception after termination of R-LA” value in assay [2] (Example 9, 3 weeks after the termination of the administration) is recorded as “became worse again”. Besides, the “perception of pain stimulus at the feet by means of a sharp needle” value in assay [2] (Example 10, 300 mg daily with vitamin B-combination medication, after 2 weeks) was “perceived again”. In assay [2] (Example 10, 300 mg daily with vitamin B-combination medication, at the end of four weeks), the “stomach pain and feeling of abdominal fullness” value is on record as “improved”. The “dryness at the feet” value in assay [2] (Example 12, 100 mg twice a day, after 2 weeks) is given as “improved”. For the same compound, the “dryness at the hands” value in assay [2] (Example 12, 100 mg twice a day, after 3 weeks) is “improved”.

With `O=C(O)CCCC[C@@H]1CCSS1` [R-LA (K salt)], in assay [2] (setting [7]), the “hyperhidrosis at the face” value is “not disappeared” and the “sensory perception in the lower limbs” value is recorded as “improved from severe to moderate”.

As for `O=C(O)CCCCC1CCSS1` (racemic) [rac-LA, 5-(1,2-dithiolan-3-yl)valeric acid], the “efficacy in controlled clinical trials” value in assay [3] (human, in vivo) is listed as “negative”. Further, the “efficacy in first short-time pilot study (ALADIN Study)” value in assay [3] (i.v. treatment, 3-week multicentre randomized controlled trial) was “verified the historic impressions of the efficacy”. In assay [3] (oral long-term therapy), the neuropathic deficits result is “appeared to deteriorate”. In addition, in assay [3] (short-term use (i.v.) or long-term use (p.o.)), the “efficacy in pivotal placebo-controlled double-blind multicentre trials (ALADIN II, ALADIN III)” value was “could not be reproduced”. The “result of first clinical trial” value in assay [4] is “negative results”.

The values above are taken from patent US8722013B2, “Use of R(+)-alpha-lipoic acid for cryptogenic neuropathy” (Encrypta GmbH, priority 2007, dated 2014).
